pEC50: −log10 of the molar value. Active and inactive are the calls of the source. Unless noted, no cut-off for these calls is given here.
What was measured:
Histamine H3 receptor [1] = target: T1, Histamine H3 receptor (Homo sapiens, UniProt Q9Y5N1); assay: (§1) Agonist activity at human H3R expressed in HEK293 cells harboring glosensor-22F cAMP plasmid DNA assessed as inhibition of forskolin-stimulated cAMP accumulation preincubated with cells followed by forskolin addition measured after 10 mins by luminescence assay; format: functional, cell-based; conditions: for pEC50: read-out: EC50
T1 sequence (Q9Y5N1 whole entry): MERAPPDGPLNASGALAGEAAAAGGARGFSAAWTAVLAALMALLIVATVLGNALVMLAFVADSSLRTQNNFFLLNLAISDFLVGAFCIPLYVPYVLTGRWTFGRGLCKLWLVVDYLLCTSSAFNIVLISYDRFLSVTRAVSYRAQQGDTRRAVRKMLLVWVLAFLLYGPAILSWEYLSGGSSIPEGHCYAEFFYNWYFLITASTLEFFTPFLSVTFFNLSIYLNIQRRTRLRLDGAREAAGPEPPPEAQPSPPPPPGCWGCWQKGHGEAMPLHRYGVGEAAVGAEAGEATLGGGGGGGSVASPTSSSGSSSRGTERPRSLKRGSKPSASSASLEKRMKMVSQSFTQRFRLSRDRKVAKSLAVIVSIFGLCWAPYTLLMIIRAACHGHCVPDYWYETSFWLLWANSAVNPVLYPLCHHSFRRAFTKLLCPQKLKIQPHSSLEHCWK

HEK-293T = assay: Cytotoxicity against HEK293T cells assessed as reduction in cell viability at 1 to 10 uM after 24 hrs by XTT assay; format: cell-based; conditions: human
[2] = target: Histamine H1 receptor (Homo sapiens) (UniProt P35367); assay: Agonist activity at H1R (unknown origin) expressed in HEK293 cells harboring luc2P/NFAT-RE plasmid at 10 uM after 6 to 8 hrs by luciferase reporter gene assay; format: functional, cell-based
Chain of Histamine H1 receptor (Homo sapiens) (P35367 whole entry): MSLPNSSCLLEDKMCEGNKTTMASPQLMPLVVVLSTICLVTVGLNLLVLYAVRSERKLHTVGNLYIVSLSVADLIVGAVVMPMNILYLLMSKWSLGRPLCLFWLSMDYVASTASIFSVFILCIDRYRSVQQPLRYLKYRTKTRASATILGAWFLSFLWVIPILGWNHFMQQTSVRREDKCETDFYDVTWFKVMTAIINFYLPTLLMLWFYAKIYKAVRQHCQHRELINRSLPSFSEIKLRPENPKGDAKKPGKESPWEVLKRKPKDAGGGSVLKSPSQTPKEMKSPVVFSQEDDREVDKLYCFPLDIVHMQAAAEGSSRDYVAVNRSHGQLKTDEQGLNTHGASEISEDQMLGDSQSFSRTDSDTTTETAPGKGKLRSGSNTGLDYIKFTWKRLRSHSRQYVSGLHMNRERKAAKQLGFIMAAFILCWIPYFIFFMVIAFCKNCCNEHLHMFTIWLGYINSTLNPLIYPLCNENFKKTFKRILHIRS

[3] = target: T2, 5-hydroxytryptamine receptor 2C (Homo sapiens) (UniProt P28335); assay: Agonist activity at human 5-HT2C expressed in HEK293 cells harboring luc2P/NFAT-RE plasmid at 10 uM after 6 to 8 hrs by luciferase reporter gene assay; format: functional, cell-based
T2 sequence (whole entry): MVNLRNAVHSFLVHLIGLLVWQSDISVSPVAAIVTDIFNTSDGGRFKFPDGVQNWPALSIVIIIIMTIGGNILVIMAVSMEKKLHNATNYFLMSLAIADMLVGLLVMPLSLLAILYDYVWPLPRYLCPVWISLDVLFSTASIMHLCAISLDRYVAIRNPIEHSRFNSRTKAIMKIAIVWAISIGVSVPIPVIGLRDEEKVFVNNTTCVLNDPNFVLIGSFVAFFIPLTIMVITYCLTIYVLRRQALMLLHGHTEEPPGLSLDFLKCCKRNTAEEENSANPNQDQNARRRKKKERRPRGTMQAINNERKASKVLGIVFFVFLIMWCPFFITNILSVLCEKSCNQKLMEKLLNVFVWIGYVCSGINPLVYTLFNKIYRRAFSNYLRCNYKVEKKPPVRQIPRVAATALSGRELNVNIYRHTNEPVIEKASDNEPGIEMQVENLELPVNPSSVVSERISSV

[4] = target: T2, 5-hydroxytryptamine receptor 2C (Homo sapiens); assay: Antagonist activity at human 5-HT2C expressed in HEK293 cells harboring luc2P/NFAT-RE plasmid at 10 uM after 6 to 8 hrs by luciferase reporter gene assay; format: functional, cell-based
[5] = target: Luciferin 4-monooxygenase (Photinus pyralis) (UniProt P08659); assay: Inhibition of firefly luciferase activity expressed in HEK293 cells assessed as reduction in forskolin-stimulated cAMP accumulation up to 10 uM preincubated with cells followed by forskolin addition measured after 10 mins by luminescence assay; format: cell-based
Chain of Luciferin 4-monooxygenase (Photinus pyralis) (P08659 whole entry): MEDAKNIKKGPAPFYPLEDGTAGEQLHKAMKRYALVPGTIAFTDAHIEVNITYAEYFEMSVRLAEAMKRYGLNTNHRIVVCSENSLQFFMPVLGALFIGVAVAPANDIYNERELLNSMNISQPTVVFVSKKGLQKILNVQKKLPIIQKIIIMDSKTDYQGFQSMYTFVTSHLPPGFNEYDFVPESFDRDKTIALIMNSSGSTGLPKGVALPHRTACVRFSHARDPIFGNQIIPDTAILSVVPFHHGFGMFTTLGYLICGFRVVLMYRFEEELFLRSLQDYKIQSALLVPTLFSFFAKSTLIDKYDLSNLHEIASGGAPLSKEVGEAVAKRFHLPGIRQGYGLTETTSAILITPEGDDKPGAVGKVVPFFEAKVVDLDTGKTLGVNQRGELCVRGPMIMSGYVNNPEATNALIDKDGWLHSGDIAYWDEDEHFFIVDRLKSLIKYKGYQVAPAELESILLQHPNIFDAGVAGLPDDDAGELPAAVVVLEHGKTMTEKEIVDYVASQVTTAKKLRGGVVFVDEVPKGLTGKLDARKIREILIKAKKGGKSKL

[6] = target: Histamine H2 receptor (Homo sapiens) (UniProt P25021); assay: Agonist activity at H2R (unknown origin) expressed in HEK293 cells harboring glosensor-22F cAMP plasmid DNA assessed as inhibition of forskolin-stimulated cAMP accumulation at 10 uM preincubated with cells followed by forskolin addition measured after 10 mins by luminescence assay; format: functional, cell-based
Chain of Histamine H2 receptor (Homo sapiens) (P25021 whole entry): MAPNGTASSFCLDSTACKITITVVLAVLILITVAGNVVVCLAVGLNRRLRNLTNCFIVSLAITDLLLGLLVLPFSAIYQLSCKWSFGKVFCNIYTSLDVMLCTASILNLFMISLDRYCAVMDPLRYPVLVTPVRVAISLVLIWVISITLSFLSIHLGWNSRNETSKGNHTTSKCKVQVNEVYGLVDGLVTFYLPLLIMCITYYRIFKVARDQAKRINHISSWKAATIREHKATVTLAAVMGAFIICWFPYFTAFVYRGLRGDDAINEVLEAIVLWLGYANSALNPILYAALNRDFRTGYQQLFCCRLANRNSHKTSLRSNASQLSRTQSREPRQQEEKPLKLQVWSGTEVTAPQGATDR

[7] = target: Histamine H4 receptor (Homo sapiens) (UniProt Q9H3N8); assay: Agonist activity at H4R (unknown origin) expressed in HEK293 cells harboring glosensor-22F cAMP plasmid DNA assessed as inhibition of forskolin-stimulated cAMP accumulation at 10 uM preincubated with cells followed by forskolin addition measured after 10 mins by luminescence assay; format: functional, cell-based
Chain of Histamine H4 receptor (Homo sapiens) (Q9H3N8 whole entry): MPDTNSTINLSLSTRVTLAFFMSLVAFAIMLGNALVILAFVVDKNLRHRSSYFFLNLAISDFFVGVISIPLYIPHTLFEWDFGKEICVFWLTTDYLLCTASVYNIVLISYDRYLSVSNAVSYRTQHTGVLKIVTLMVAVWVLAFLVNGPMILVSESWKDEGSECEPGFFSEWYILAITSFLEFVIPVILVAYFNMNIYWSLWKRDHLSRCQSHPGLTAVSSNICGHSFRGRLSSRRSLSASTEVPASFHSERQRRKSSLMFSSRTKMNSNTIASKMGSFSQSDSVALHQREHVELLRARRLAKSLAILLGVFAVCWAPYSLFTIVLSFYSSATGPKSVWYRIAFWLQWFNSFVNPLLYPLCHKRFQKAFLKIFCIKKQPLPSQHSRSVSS

[8] = target: Histamine H2 receptor (Homo sapiens) (UniProt P25021); assay: Antagonist activity at H2R (unknown origin) expressed in HEK293 cells harboring glosensor-22F cAMP plasmid DNA assessed as effect on forskolin-stimulated cAMP accumulation at 10 uM preincubated with cells followed by forskolin addition measured after 10 mins by luminescence assay; format: functional, cell-based
[9] = Octanol/water partition co-efficient, log P of the compound after 24 hrs by HPLC based shake-flask method; format: physicochemical
[10] = target: Histamine H4 receptor (Homo sapiens) (UniProt Q9H3N8); assay: Antagonist activity at H4R (unknown origin) expressed in HEK293 cells harboring glosensor-22F cAMP plasmid DNA assessed as effect on forskolin-stimulated cAMP accumulation at 10 uM preincubated with cells followed by forskolin addition measured after 10 mins by luminescence assay; format: functional, cell-based
Histamine H3 receptor [11] = target: T1, Histamine H3 receptor; assay: as §1, with “accumulation at 1 uM” for “accumulation”, “mins in presence of H3R antagonist GSK334429” for “mins”; format: functional, cell-based
[12] = target: Histamine H1 receptor (Homo sapiens) (UniProt P35367); assay: Antagonist activity at H1R (unknown origin) expressed in HEK293 cells harboring luc2P/NFAT-RE plasmid at 10 uM after 6 to 8 hrs by luciferase reporter gene assay; format: functional, cell-based
Mus musculus [13] = assay: Anorexic effect in diet-induced obese C57BL/6J mouse assessed as reduction in cumulative food intake at 20 mg/kg, po pretreated for 30 mins followed by food addition measured after 4 hrs; format: functional, organism-based
Mus musculus [14] = assay: Anorexic effect in diet-induced obese C57BL/6J mouse assessed as reduction in cumulative food intake at 10 mg/kg, po pretreated for 30 mins followed by food addition measured after 4 hrs; format: functional, organism-based

O=C1C=CC2(C=C1)C(c1ccccc1)=CC(=O)N2C(C(=O)NC1CCCCC1)c1ccc(Cl)cc1 (stereo not drawn)
pEC50 (Histamine H3 receptor [1]): 6.98
Activity (HEK-293T): Non-Toxic
Activity [2]: inactive
Activity [3]: inactive
inhibition [4]: inactive
inhibition [5]: inactive
inhibition [6]: inactive
inhibition [7]: inactive
inhibition [8]: inactive
logP at 24 h [9]: 3.8
inhibition [10]: inactive
inhibition (Histamine H3 receptor [11]): inactive
inhibition [12]: inactive

COc1ccc(C(C(=O)NC2CCCCC2)N2C(=O)C(c3ccc(C(F)(F)F)cc3)=C(c3ccccc3)C23C=CC(=O)C=C3)c(OC)c1OC (stereo not drawn)
pEC50 (Histamine H3 receptor [1]): 7.89
Activity (HEK-293T): Non-Toxic
Activity [2]: inactive
Activity [3]: inactive
inhibition [4]: inactive
inhibition [5]: inactive
inhibition [6]: inactive
inhibition [7]: inactive
inhibition [8]: inactive
logP at 24 h [9]: 2.74
inhibition [10]: inactive
inhibition (Histamine H3 receptor [11]): inactive
inhibition [12]: inactive

COc1cc(N2C(=O)C(=Cc3ccccc3)C2(C(=O)NC(C)(C)C)c2cc(F)cc(F)c2)cc(OC)c1OC (stereo not drawn)
pEC50 (Histamine H3 receptor [1]): 9.52
Activity (HEK-293T): Non-Toxic
Activity [2]: inactive
Activity [3]: inactive
inhibition [4]: inactive
inhibition [5]: inactive
inhibition [6]: inactive
inhibition [7]: inactive
inhibition [8]: inactive
logP at 24 h [9]: 2.34
inhibition [10]: inactive
inhibition (Histamine H3 receptor [11]): inactive
inhibition [12]: inactive

COc1cc(N2C(=O)C(=Cc3ccccc3)C2(C(=O)NC2CCCCC2)c2ccc(F)cc2)cc(OC)c1OC (stereo not drawn)
pEC50 (Histamine H3 receptor [1]): 6.98
Activity (HEK-293T): Non-Toxic
Activity [2]: inactive
Activity [3]: inactive
inhibition [4]: inactive
inhibition [5]: inactive
inhibition [6]: inactive
inhibition [7]: inactive
inhibition [8]: inactive
logP at 24 h [9]: 1.85
inhibition [10]: inactive
inhibition (Histamine H3 receptor [11]): inactive
inhibition [12]: inactive

O=C1C=C[C@]23C(c4ccccc4)=CC(=O)N2[C@H](c2ccc(C(F)(F)F)cc2)C(=O)N[C@@H]3C1
pEC50 (Histamine H3 receptor [1]): 7.03
Activity (HEK-293T): Non-Toxic
Activity [2]: inactive
Activity [3]: inactive
inhibition [4]: inactive
inhibition [5]: inactive
inhibition [6]: inactive
inhibition [7]: inactive
inhibition [8]: inactive
logP at 24 h [9]: 2.1
inhibition [10]: inactive
inhibition (Histamine H3 receptor [11]): inactive
inhibition [12]: inactive

COc1cc(NC2(c3cccc(Cl)c3)C(=O)N(C(C)(C)C)C(=O)/C2=C/c2ccccc2)cc(OC)c1OC (stereo not drawn)
pEC50 (Histamine H3 receptor [1]): 8.57
Activity (HEK-293T): Non-Toxic
Activity [2]: inactive
Activity [3]: inactive
inhibition [4]: inactive
inhibition [5]: inactive
inhibition [6]: inactive
inhibition [7]: inactive
Activity (Mus musculus [13]): Active
inhibition [8]: inactive
logP at 24 h [9]: 2.96
inhibition [10]: inactive
Activity (Mus musculus [14]): inactive
inhibition (Histamine H3 receptor [11]): inactive
inhibition [12]: inactive

COc1ccc(NC2(c3cccc(Cl)c3)C(=O)N(C3CCCCC3)C(=O)/C2=C/c2ccccc2)cc1OC (stereo not drawn)
pEC50 (Histamine H3 receptor [1]): 8.57
Activity (HEK-293T): Non-Toxic
Activity [2]: inactive
Activity [3]: inactive
inhibition [4]: inactive
inhibition [5]: inactive
inhibition [6]: inactive
inhibition [7]: inactive
inhibition [8]: inactive
logP at 24 h [9]: 2.45
inhibition [10]: inactive
inhibition (Histamine H3 receptor [11]): inactive
inhibition [12]: inactive

COc1ccc(NC2(c3cc(F)cc(F)c3)C(=O)N(C3CCCCC3)C(=O)/C2=C/c2ccccc2)cc1 (stereo not drawn)
pEC50 (Histamine H3 receptor [1]): 8.42
Activity (HEK-293T): Non-Toxic
Activity [2]: inactive
Activity [3]: inactive
inhibition [4]: inactive
inhibition [5]: inactive
inhibition [6]: inactive
inhibition [7]: inactive
inhibition [8]: inactive
inhibition [10]: inactive
inhibition (Histamine H3 receptor [11]): inactive
inhibition [12]: inactive

COc1ccc(N2C(=O)/C(=C\c3ccccc3)C2(C(=O)NC(C)(C)C)c2ccc(Br)cc2)cc1OC (stereo not drawn)
pEC50 (Histamine H3 receptor [1]): 7.62
EC50 (Histamine H3 receptor [1]; read-out: pEC50 (converted)): 25.7 nM
Activity (HEK-293T): Non-Toxic
Activity [2]: inactive
Activity [3]: inactive
inhibition [4]: inactive
inhibition [5]: inactive
inhibition [6]: inactive
inhibition [7]: inactive
inhibition [8]: inactive
inhibition [10]: inactive
inhibition (Histamine H3 receptor [11]): inactive
inhibition [12]: inactive

C[C@H]1CNCCc2ccc(Cl)cc21
Activity (Mus musculus [14]): Active

COc1ccc(C2=C(c3ccccc3)C3(C=CC(=O)C=C3)N(C(C(=O)NC3CCCCC3)c3cc4c(cc3Br)OCO4)C2=O)cc1 (stereo not drawn)
pEC50 (Histamine H3 receptor [1]): 7.84
Activity (HEK-293T): Non-Toxic
Activity [2]: inactive
Activity [3]: inactive
inhibition [4]: inactive
inhibition [5]: inactive
inhibition [6]: inactive
inhibition [7]: inactive
inhibition [8]: inactive
inhibition [10]: inactive
inhibition (Histamine H3 receptor [11]): inactive
inhibition [12]: inactive

O=C1C=C[C@]23C(c4ccccc4)=CC(=O)N2[C@H](c2ccc([N+](=O)[O-])cc2)C(=O)N[C@@H]3C1
pEC50 (Histamine H3 receptor [1]): 9.52
Activity (HEK-293T): Non-Toxic
Activity [2]: inactive
Activity [3]: inactive
inhibition [4]: inactive
inhibition [5]: inactive
inhibition [6]: inactive
inhibition [7]: inactive
inhibition [8]: inactive
logP at 24 h [9]: 1.78
inhibition [10]: inactive
inhibition (Histamine H3 receptor [11]): inactive
inhibition [12]: inactive

COc1cc(N2C(=O)C(=Cc3ccccc3)C2(C(=O)NC(C)(C)C)c2ccc(Cl)c(F)c2)cc(OC)c1OC (stereo not drawn)
pEC50 (Histamine H3 receptor [1]): 8.96
Activity (HEK-293T): Non-Toxic
Activity [2]: inactive
Activity [3]: inactive
inhibition [4]: inactive
inhibition [5]: inactive
inhibition [6]: inactive
inhibition [7]: inactive
inhibition [8]: inactive
inhibition [10]: inactive
inhibition (Histamine H3 receptor [11]): inactive
inhibition [12]: inactive

O=C1C=C[C@]23C(c4ccccc4)=CC(=O)N2[C@H](c2cc(F)cc(F)c2)C(=O)N[C@@H]3C1
pEC50 (Histamine H3 receptor [1]): 8.00
Activity (HEK-293T): Non-Toxic
Activity [2]: inactive
Activity [3]: inactive
inhibition [4]: inactive
inhibition [5]: inactive
inhibition [6]: inactive
inhibition [7]: inactive
inhibition [8]: inactive
inhibition [10]: inactive
inhibition (Histamine H3 receptor [11]): inactive
inhibition [12]: inactive
